Test results reported in publication PMC6267684, “Pharmacokinetic evaluation of the PNC disassembler metarrestin in wild-type and Pdx1-Cre;LSL-Kras^G12D/+;Tp53^R172H/+ (KPC) mice, a genetically engineered model of pancreatic cancer” (Cancer Chemotherapy and Pharmacology, 2018).
Where two headings read alike, the source gives them in different places.

Columns and labels:
FOXO6 mRNA = FOXO6 mRNA expression in KPC tumors (RNA-seq, qRT-PCR); format: in vivo, KPC mice; settings: vs intratumor exposure
Protocol: Pancreas cancer tissues samples or adjacent, uninvolved normal pancreas from vehicle or metarrestin-treated KPC animals collected at 0, 3, and 9 h after last dose of 25 mg/kg metarrestin were homogenized in PureLink Lysis Buffer (PureLink RNA Mini Kit, ThermoFisher Scientific Waltham, MA) at 4 °C using a TissueLyser II bead mill (Qiagen, Valencia, CA, manufactured by Retsch, Newtown, PA). Total RNA was isolated using the Life Technologies PureLink® RNA Mini Kit, quantified on a NanoDrop 1000 spectrophotometer (ThermoFisher Scientific, Waltham, MA). […]
Total RNA libraries were prepared using the Illumina TruSeq® Stranded Total RNA LT (with Ribo-Zero™Human/Mouse/Rat) kit according the manufacturer’s instructions. […] Sequencing output ranged from 89 to 132 million reads per sample. Adapter trimming and base filtering was done using Trimmomatic software version 0.3, and the trimmed reads were aligned to mouse reference genome (GRCm38/mm10) and Ensembl annotation (version 70) using TopHat2 version 2.0.8.
A total of 450 ng of total RNA was used for single-strand complementary DNA synthesis using a SuperScript III First-Strand kit (Invitrogen, Carlsbad, CA). […] Reaction products were read in a Bio-Rad CFX96 Touch real-time PCR detection system (Bio-Rad Laboratories, Hercules, CA). […]

PNC in murine KPC tumors = experiment: PNC prevalence in KPC tumors (immunofluorescence with α-PTB1 antibodies); format: in vivo, KPC mice; settings: after 14-day treatment with 25 mg/kg by oral gavage; untreated 38.2%
Protocol: Blood samples were collected in K2EDTA tubes and plasma was harvested after centrifugation at 3000 rpm for 10 min. Tissue samples were weighed and flash-frozen for PK and PD mRNA expression analyses, embedded into OCT blocks for PNC determination and processed into FFPE blocks for histopathology assessment. All PK samples were stored at − 80 °C until analysis.
To establish a dose–response relationship between intratumor exposure levels of metarrestin and mechanism of action of the drug in vivo, we first confirmed the ability of metarrestin to suppress PNC structures in murine pancreatic KPC tumors. The prevalence of PNC bodies (expressed as the fraction of cells containing one or more PNCs) was 38.2% in untreated murine KPC tumors (Fig. 4a) which was similar to the PNC prevalence in the previously examined NOD/IL2 gamma (null) PANC1 metastasis model (35.1%) and higher than in cancer cell lines derived from primary pancreatic tumors (average ~ 23.5%). […]
Fig. 4 Intratumor metarrestin exposure correlates with PNC prevalence and mRNA expression levels of transcriptional regulators FOXA1 and FOXO6. a Metarrestin disassembles the peri-nucleolar compartment (PNC) in KPC tumors. […] Relative expression levels of FOXA1 and FOXO6 determined by qRT-PCR and normalized to reference genes. […]

[1] = Steady-state PK in KPC mice fed metarrestin-infused chow; format: in vivo; settings: for Kp / AUC0-24hr Ratio (Tissue/Plasma): 10 mg/kg/day; for Kp / Cmax / Tmax / AUC0-24hr Ratio (Tissue/Plasma): day 10, chow; for Kp: read-out: AUC0-24hr Ratio (Tissue/Plasma); for concentration at 0 h / concentration at 3 h / concentration at 6 h / concentration at 9 h / concentration at 12 h / concentration at 15 h / concentration at 24 h: day 10, 10 mg/kg/day (70 ppm) chow; for Cmax / Tmax: po
[2] = KPC, mouse, plasma, oral, read-out: Plasma concentration
[3] = KPC, mouse, liver, target dose 10 mg/kg/day
[4] = KPC, mouse, plasma, target dose 10 mg/kg/day
[5] = KPC, mouse, spleen, target dose 10 mg/kg/day
[6] = KPC, mouse, tumor, target dose 10 mg/kg/day
[7] = KPC, mouse, tumor, oral, read-out: Tumor concentration

N=c1c2c(-c3ccccc3)c(-c3ccccc3)n(Cc3ccccc3)c2ncn1[C@H]1CC[C@H](O)CC1 [metarrestin, Trans-4-(7-benzyl-4-imino-5,6-diphenyl-4,7-dihydro-3H-pyrrolo[2,3-d]pyrimidin-3-yl) cyclohexanol]
FOXO6 mRNA expression in KPC tumors (FOXO6 mRNA): Dose-dependent normalization
PNC prevalence in KPC tumors (PNC in murine KPC tumors): 9.8%
intratumor AUC0–24h ([1]; 10 mg/kg PO chow): 80,600 h ng/mL
intratumor AUC0–24h ([1]; 10 mg/kg PO steady-state chow): 96,100 h ng/mL
intratumor AUC levels ([1]; 10 mg/kg dosing with solid or liquid formulations): > 80,000 ng h/mL
Kp ([1]; KPC, mouse, liver, oral, liver/plasma, target dose 10 mg/kg/day): > 20
AUC(0-t) ([1]; KPC, mouse, oral, plasma, day 10, chow 70 ppm, target dose 10 mg/kg/day, read-out: AUC0-24hr): 4160 ng·h/mL
Kp ([1]; KPC, mouse, pancreatic tumor, oral, tumor/plasma, target dose 10 mg/kg/day): > 20
concentration at 0 h [1, 2]: 0.46 µM
concentration at 3 h [1, 2]: 0.33 µM
concentration at 6 h [1, 2]: 0.3 µM
concentration at 9 h [1, 2]: 0.5 µM
concentration at 12 h [1, 2]: 0.43 µM
concentration at 15 h [1, 2]: 0.36 µM
concentration at 24 h [1, 2]: 0.27 µM
Cmax [1, 3]: 7250 ng/mL
Tmax [1, 3]: 12 h
Cmax [1, 4]: 237 ng/mL
Tmax [1, 4]: 9 h
Cmax [1, 5]: 5840 ng/mL
Tmax [1, 5]: 15 h
Cmax [1, 6]: 5100 ng/mL
Tmax [1, 6]: 9 h
Kp ([1]; KPC, mouse, spleen, oral, spleen/plasma, target dose 10 mg/kg/day): > 20
concentration at 0 h [1, 7]: 7.9 µM
concentration at 3 h [1, 7]: 10.3 µM
concentration at 6 h [1, 7]: 8 µM
concentration at 9 h [1, 7]: 10.8 µM
concentration at 12 h [1, 7]: 10.7 µM
concentration at 15 h [1, 7]: 7.2 µM
concentration at 24 h [1, 7]: 6.7 µM
AUC0-24hr Ratio (Tissue/Plasma) ([1]; liver/plasma, target dose 10 mg/kg/day): 37
AUC0-24hr ([1]; liver, day 10, chow 70 ppm, target dose 10 mg/kg/day): 153000 ng●hr/mL
AUC0-24hr Ratio (Tissue/Plasma) ([1]; spleen/plasma, target dose 10 mg/kg/day): 26
AUC0-24hr ([1]; spleen, day 10, chow 70 ppm, target dose 10 mg/kg/day): 109000 ng●hr/mL
AUC0-24hr Ratio (Tissue/Plasma) ([1]; tumor/plasma, target dose 10 mg/kg/day): 23
AUC0-24hr ([1]; tumor, day 10, chow 70 ppm, target dose 10 mg/kg/day): 96100 ng●hr/mL
